Measurements: publication PMC3553658 (Combinatorial chemistry & high throughput screening, 2012)
“Also recorded” adds a separate entry of the source.

How the values were obtained:
Format in all cases: biochemical
SET8 [1] = target: T1, SET8 (Homo sapiens, UniProt Q9NQR1); assay: SPIA-bead assay; details: read-out: SET8 [% IHBN], SPIA primary screen, 10 μM compound, duplicate
T1 sequence (Q9NQR1 191-352 isoform Q9NQR1-2): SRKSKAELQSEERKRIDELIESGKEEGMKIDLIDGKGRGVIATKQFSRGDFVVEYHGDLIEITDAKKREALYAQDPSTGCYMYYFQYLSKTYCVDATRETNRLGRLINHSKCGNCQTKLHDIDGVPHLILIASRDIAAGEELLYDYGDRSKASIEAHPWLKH

SETD2 [2] = target: T2, SETD2 (Homo sapiens, UniProt Q9BYW2); assay: Filter-paper assay dose response, SETD2; details: up to 100 μM
T2 sequence (Q9BYW2 1347-1711): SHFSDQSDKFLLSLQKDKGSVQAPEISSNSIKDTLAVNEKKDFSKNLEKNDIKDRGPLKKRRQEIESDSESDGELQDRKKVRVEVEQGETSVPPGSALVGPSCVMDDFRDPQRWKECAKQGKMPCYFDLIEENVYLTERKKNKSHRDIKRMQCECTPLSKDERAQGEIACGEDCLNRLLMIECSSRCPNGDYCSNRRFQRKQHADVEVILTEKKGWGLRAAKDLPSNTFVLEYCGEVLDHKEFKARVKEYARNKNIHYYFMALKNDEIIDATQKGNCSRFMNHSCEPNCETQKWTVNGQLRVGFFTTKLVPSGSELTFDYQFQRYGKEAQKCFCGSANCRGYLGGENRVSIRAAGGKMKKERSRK

EuHMTase1 = target: T3, EuHMTase1 (Homo sapiens, UniProt Q9H9B1); assay: Filter-paper assay dose response, EuHMTase1; details: up to 100 μM
T3 sequence (Q9H9B1 982-1266): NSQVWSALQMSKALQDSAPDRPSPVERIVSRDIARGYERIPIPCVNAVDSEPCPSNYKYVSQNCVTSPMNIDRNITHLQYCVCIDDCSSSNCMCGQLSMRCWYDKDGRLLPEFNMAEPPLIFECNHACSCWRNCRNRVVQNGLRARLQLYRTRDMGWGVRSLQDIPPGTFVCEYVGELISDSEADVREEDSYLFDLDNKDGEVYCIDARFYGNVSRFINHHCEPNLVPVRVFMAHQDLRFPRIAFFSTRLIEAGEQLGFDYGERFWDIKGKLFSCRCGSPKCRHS

SETD2 [3] = target: T2, SETD2; assay: SPIA-bead assay; details: SPIA primary screen, 10 μM compound, duplicate
SET8 [4] = target: T1, SET8; assay: Filter-paper assay dose response, SET8; details: up to 100 μM
SET7/9 [5] = target: T4, SET7/9 (Homo sapiens, UniProt Q8WTS6); assay: Filter-paper assay dose response, SET7/9; details: up to 100 μM
T4 sequence (Q8WTS6 1-366): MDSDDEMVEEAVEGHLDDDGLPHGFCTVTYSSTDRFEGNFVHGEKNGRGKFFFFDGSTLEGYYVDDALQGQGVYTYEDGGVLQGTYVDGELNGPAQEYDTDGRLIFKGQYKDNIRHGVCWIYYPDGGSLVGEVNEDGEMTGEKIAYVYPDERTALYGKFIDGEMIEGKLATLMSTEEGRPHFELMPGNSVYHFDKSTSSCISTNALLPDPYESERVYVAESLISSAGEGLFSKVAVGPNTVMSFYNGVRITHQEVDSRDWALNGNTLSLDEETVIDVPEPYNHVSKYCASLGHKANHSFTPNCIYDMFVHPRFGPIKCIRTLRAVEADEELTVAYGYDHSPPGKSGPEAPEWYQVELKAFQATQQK

SET7/9 [6] = target: T4, SET7/9; assay: SPIA-bead assay; details: SPIA primary screen, 10 μM compound, duplicate

| SMILES | inhibition at 10 µM (SET8 [1]) [%] | Inhibition of SETD2 in filter-paper assay (SETD2 [2]) | Inhibition of EuHMTase1 in filter-paper assay (EuHMTase1) | SETD2 [% IHBN] (SETD2 [3]) | Inhibition of SET8 in filter-paper assay (SET8 [4]) | Inhibition of SET7/9 in filter-paper assay (SET7/9 [5]) | SET7/9 [% IHBN] (SET7/9 [6]) [%] |
| --- | --- | --- | --- | --- | --- | --- | --- |
| O=C(O)CCCC[C@@H]1SC[C@@H]2NC(=O)N[C@@H]21 [Biotin] | 60 to 90 | no inhibition; also recorded: did not find inhibition | no inhibition; also recorded: did not find inhibition | 60–90% | no inhibition; also recorded: did not find inhibition | no inhibition; also recorded: did not find inhibition | – |
| O=C(Nc1ccc(C(=O)Nc2ccc(C(=O)Nc3ccc(S(=O)(=O)[O-])c4cc(S(=O)(=O)[O-])cc(S(=O)(=O)[O-])c34)cc2)cc1)Nc1ccc(C(=O)Nc2ccc(C(=O)Nc3ccc(S(=O)(=O)[O-])c4cc(S(=O)(=O)[O-])cc(S(=O)(=O)[O-])c34)cc2)cc1.[Na+].[Na+].[Na+].[Na+].[Na+].[Na+] [NF 279, 8,8′-[Carbonylbis(imino-4,1-phenylenecarbonylimino-4,1-phenylenecarbonylimino)]bis-1,3,5-naphtlenetrisulfonic acid hexasodium salt] | – | – | – | – | – | – | 83 |
